# Legend:
# [1] = test system: cytochrome c; experiment: Nitration and polymerization of cytochrome c by NO donor during prostaglandin H2 synthase form 2 metabolism of arachidonic acid; type: biochemical; details: 300 μM DETA NONOate with ovine PGHS-2 and arachidonic acid (590 μM), 37° C., 30 minutes
# Procedure: Western blot analysis was carried out with monoclonal antibodies produced against nitrotyrosine using the alkaline phosphatase system;
# Reaction mixture in 100 mM phosphate buffer, pH 7.4, (total volume, 200 μl) was incubated at 37° C. for 30 minutes. The reaction mixture contained a combination of cytochrome c (40 μg), ovine prostaglandin H2 synthase form 2 (104 units), arachidonic acid (590 μM), epinephrine (31 μg), hematin (1 μM), and DETA NONOate, an NO donor, (300 μM) as indicated in FIG. 2. After incubation, the proteins were separated by SDS-PAGE followed by Western blot analysis with an alkaline phosphatase system using monoclonal antibodies produced against nitrotyrosine.
# [2] = target: T1, prostaglandin H2 synthase form 2 (Ovis aries, UniProt P79208); experiment: Peroxynitrite-induced dimerization of prostaglandin H2 synthase form 2, SDS-PAGE without β-mercaptoethanol and Western blot; type: biochemical, sheep; details: 450 μM peroxynitrite
# T1 construct: Prostaglandin H2 synthase form 2, isolated from sheep placenta, contained nitrated tyrosine residues; purchased Cayman Co. (Ann Arbor, Mich.); host or cells: sheep placenta (tissue-purified)
# T1 sequence (P79208 17-603): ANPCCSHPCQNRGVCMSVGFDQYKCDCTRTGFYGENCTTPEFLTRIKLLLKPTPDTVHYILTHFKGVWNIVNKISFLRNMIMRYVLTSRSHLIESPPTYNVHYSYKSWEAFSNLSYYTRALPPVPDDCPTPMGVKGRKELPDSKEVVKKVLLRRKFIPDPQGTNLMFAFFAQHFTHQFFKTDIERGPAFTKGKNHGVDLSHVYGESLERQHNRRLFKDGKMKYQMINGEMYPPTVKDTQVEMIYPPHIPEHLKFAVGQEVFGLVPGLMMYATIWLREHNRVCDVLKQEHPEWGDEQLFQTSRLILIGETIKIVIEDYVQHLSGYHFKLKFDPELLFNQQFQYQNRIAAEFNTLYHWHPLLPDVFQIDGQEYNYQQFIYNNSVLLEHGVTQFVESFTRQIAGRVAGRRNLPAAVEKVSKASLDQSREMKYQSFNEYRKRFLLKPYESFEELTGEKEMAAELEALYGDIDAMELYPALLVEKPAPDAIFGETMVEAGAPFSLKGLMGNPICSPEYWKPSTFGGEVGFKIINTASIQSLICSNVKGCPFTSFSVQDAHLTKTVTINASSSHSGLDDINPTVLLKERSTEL
# Procedure: (§1) SDS-PAGE was carried out on 10% or 15% gels, according to Laemmli (18), with or without the addition of β-mercaptoethanol in gel loading buffer before heat denaturization of proteins. The separated proteins were electroblotted onto a […] membrane and Western blot analyses were carried out using alkaline phosphatase system as previously described (19,20). Visualization of bands was accomplished by incubation with a mixture of 5-bromo-4-chloro-3-indolylphosphatate p-toluidine and nitrobluetetrazolium. Western blot analyses were also carried out using horseradish peroxidase or alkaline phosphatase system with […] substrates.
# [3] = target: T1, prostaglandin H2 synthase form 2; experiment: Peroxynitrite-induced nitration of prostaglandin H2 synthase form 2, Western blot with anti-nitrotyrosine antibodies; type: biochemical, sheep; details: for nitration of tyrosine residues of prostaglandin H2 synthase form 2 in the presence of reducing agent: 16 μg sheep PGHS-2, 450 μM peroxynitrite, 31 μM GSH
# Procedure: as §1
# [4] = target: T2, prostaglandin H2 synthase form 1 (Ovis aries, UniProt P05979); experiment: Prostaglandin H2 synthase activity analysis by TLC ([14C]arachidonic acid conversion); type: biochemical, sheep; details: pretreated at 37° C. for 30 minutes; 25 μM [14C]arachidonic acid
# T2 construct: sheep prostaglandin H2 synthases form 1 and 2 obtained from ram seminal vesicle and placenta, respectively; purchased Cayman Co. (Ann Arbor, Mich.); host or cells: ram seminal vesicle (tissue-purified)
# T2 sequence (P05979 25-600): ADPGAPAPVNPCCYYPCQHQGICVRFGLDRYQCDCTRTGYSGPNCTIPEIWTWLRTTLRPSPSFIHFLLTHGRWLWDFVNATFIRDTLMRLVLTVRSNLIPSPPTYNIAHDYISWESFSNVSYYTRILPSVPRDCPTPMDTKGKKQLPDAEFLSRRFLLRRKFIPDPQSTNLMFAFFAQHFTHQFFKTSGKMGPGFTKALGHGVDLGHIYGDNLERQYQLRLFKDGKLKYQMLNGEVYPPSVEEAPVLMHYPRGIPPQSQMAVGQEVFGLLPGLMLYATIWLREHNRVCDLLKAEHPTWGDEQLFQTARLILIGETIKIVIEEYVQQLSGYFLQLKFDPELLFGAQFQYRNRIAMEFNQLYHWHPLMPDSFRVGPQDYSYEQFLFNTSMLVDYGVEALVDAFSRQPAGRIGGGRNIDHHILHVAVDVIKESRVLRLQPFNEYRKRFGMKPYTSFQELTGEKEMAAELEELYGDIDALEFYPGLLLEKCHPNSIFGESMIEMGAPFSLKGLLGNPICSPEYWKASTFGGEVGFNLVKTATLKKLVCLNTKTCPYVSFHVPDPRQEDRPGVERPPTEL
# Procedure: (§2) Prostaglandin H2 synthase activity analysis of sheep prostaglandin H2 synthases form 1 and 2 obtained from ram seminal vesicle and placenta, respectively, were carried out as previously described (21) with or without pretreatment with peroxynitrite. Briefly, purified or partly purified sheep prostaglandin H2 synthases form 1 (9 units) and form 2 (12 units) were pretreated with or without peroxynitrite at 37° C. for 30 minutes. [^14C]arachidonic acid (AA) (25 μM) (NEN, specific activity 53 mCi/mmol) was added to the prostaglandin H2 synthase form 1 or form 2 in 0.2 ml of PBS, and incubated at 37° C. for 10 minutes. Prostaglandin H2 synthase metabolites in the medium were extracted with ethyl acetate, dried down in a centrifugal evaporator, spotted on a silica TLC plate and separated using A-9 solvent (ethyl acetate:trimethylpentane:acetic acid:water, 55:25:10:50). The TLC assay measured products resulting from both the cyclooxygenase and peroxidase activities of prostaglandin H2 synthase. The immediate product of the prostaglandin H2 synthase reaction, prostaglandin H2, was unstable and broke down in a non-enzymatic fashion to a variety of prostaglandins which were detectable by TLC. The Rf pattern in the A-9 solvent system of the break down products of prostaglandin H2 produced by ram seminal vesicle prostaglandin H2 synthase form 1 was well characterized. […]
# [5] = target: T1, prostaglandin H2 synthase form 2; experiment: as above; type: biochemical, sheep; details: pretreated at 37° C. for 30 minutes; 25 μM [14C]arachidonic acid
# Procedure: as §2
# [6] = test system: cytochrome c; experiment: Nitration and polymerization of cytochrome c, SDS-PAGE and anti-nitrotyrosine Western blot; type: biochemical
# Procedure: as §1
# Cytochrome c (40 μg) was incubated with 0.5 mM (FIG. 1, Panel A, lane 1) […] deactivated (a negative control, FIG. 1, Panel A, lane 2) peroxynitrite in 100 mM phosphate buffer, pH 7.4. Deactivated peroxynitrite was produced by incubation of 0.5 mM peroxynitrite in buffer for 5 minutes prior to addition to the reaction mixture. […]
# Cytochrome c (40 μg) was incubated with increasing concentrations (0.032 to 0.13 mM) (FIG. 1, Panel B) of peroxynitrite in 100 mM phosphate buffer, pH 7.4. […] The cytochrome c monomer band (14 kDa) shown in Western blot analysis in FIG. 1, Panel B and those obtained from two other experiments were quantitated using Molecular Dynamics Personal Densitometer (FIG. 1, Panel C).
structure (smiles),measurement,setting,value
"NCCN(CCN)/[N+]([O-])=N/O [DETA NONOate, diethylenetetraamine (DETA) NONOate]",nitration and polymerization of cytochrome c,[1],nitrated and polymerized
N[C@@H](CCC(=O)N[C@@H](CS)C(=O)NCC(=O)O)C(=O)O [glutathione],dimerization of prostaglandin H2 synthase form 2 in the presence of reducing agent,"[2]; 31 μM GSH, no β-mercaptoethanol in loading buffer",ran as a monomer
same,nitration of tyrosine residues of prostaglandin H2 synthase form 2 in the presence of reducing agent,[3],inhibited
same,nitration of tyrosine residues of prostaglandin H2 synthase form 2 in the presence of reducing agent,[3]; listed as GSH,not nitrated
O=NOO [peroxynitrite],dimerization of prostaglandin H2 synthase form 2 by oxidant,"[2]; no GSH, no β-mercaptoethanol",migrated both as a monomer (70 kDa) and a dimer (140 kDa)
same,catalytic activity of prostaglandin H2 synthase form 1 after treatment,[4],abolished
same,catalytic activity of prostaglandin H2 synthase form 2 after treatment,[5],abolished
same,nitration of tyrosine residues of prostaglandin H2 synthase form 2 by oxidant,"[3]; 450 μM peroxynitrite, no GSH",increased
same,nitration and polymerization of cytochrome c,"[6]; 0.5 mM peroxynitrite, 100 mM phosphate buffer, pH 7.4","nitrated and polymerized to 30 kDa, 45 kDa and higher molecular mass"
same,concentration dependence of nitration and polymerization of cytochrome c,[6]; 0.032 to 0.13 mM peroxynitrite,nitrated and polymerized in a dose-dependent manner

# — patent US6812212B2, “Assessment of oxidant stress in vitro and in vivo” (priority 2000, dated 2004)
